# Test results reported in US11219614B2, “Combination cancer therapy with pentaaza macrocyclic ring complex and ascorbate compound” (Galera Labs, LLC, priority 2016, dated 2022).
# Assays:
# [1] = system: head and neck squamous cell carcinoma cells (SQ20B); assay: clonogenic cell survival assay, SQ20B; assay type: cell-based, Human
# Method: (§1) FIG. 5 is a plot showing the surviving fraction of SQ20B cells for increasing amounts of ascorbate, as determined by a clonogenic cell survival assay used to determine the effects of the compound alone and in combination with a pentaaza macrocyclic ring complex (GC4419). Human head and neck squamous cell carcinoma cells (SQ20B) were exponentially grown in culture for 48 hours. The cells were then treated with 5-20 μM GC4419 for 24 hours, followed by treatment with 5-20 pmol/cell ascorbate for 1 hour. The cells were then trypsinized, counted, replated at varying lower densities and incubated. Plates were stained and counted for clonogenic survival assays.
# FIG. 7 is a graph showing the surviving fraction of SQ20B cells treated with ascorbate and combinations including ascorbate. The effects of ascorbate in combination with a pentaaza macrocyclic ring complex (GC4419) was tested in a clonogenic cell survival assay to determine the effects of the combination alone and when paired with ionizing radiation. Human head and neck squamous cell carcinoma cells (SQ20B) were plated and grown in culture for 48 hours. The cells were then treated with 5 μM GC4419 for 24 hours and 10 pmol/cell ascorbate (AA) for 1 hour, either alone, in combination (GC+AA), and/or paired with a dose of ionizing radiation (2 Gy). After the ionizing radiation dose, the cells were trypsinized, counted, replated at varying lower densities and incubated. Plates were stained and counted for clonogenic survival assays.
# FIG. 8 is a graph showing the surviving fraction of SQ20B cells treated with ascorbate and combinations including ascorbate. The effects of ascorbate in combination with a pentaaza macrocyclic ring complex (GC4419) was tested in a clonogenic cell survival assay to determine the effects of the combination alone and when paired with the chemotherapeutic agent cisplatin. Human head and neck squamous cell carcinoma cells (SQ20B) were plated and grown in culture for 48 hours. The cells were then treated with cisplatin for 6 hours, 10 μM GC4419 for 3 hours, and 10 pmol/cell ascorbate (AA) for 1 hour. The cells were then trypsinized, counted, replated at varying lower densities and incubated. Plates were stained and counted for clonogenic survival assays.
# as §1, with “The effect” for “FIG. 5 is a plot showing the surviving fraction”, “ascorbate was tested in” for “SQ20B cells for increasing amounts of ascorbate, as determined by”, “assay” for “assay used”
# The effects of ascorbate in combination with a pentaaza macrocyclic ring complex (GC4419) was tested in a clonogenic cell survival assay to determine the effects of the combination alone and when paired with ionizing radiation. Human head and neck squamous cell carcinoma cells (SQ20B) were plated and grown in culture for 48 hours. […] After the ionizing radiation dose, the cells were trypsinized, counted, replated at varying lower densities and incubated. Plates were stained and counted for clonogenic survival assays. […]
# [2] = system: Normal human fibroblasts (NHFs); assay: surviving fraction of normal human fibroblasts; assay type: cell-based; details: 5 μM GC4419 24 h followed by 10 pmol/cell ascorbate 1 h; FIG. 9
# Method: FIG. 9 is a graph showing the normalized surviving fraction of normal human fibroblasts (NHFs) treated with GC4419, ascorbate, and a combination of GC4419 and ascorbate. Normal human fibroblasts (NHFs) were plated and grown in culture (low FBS media) for 48 hours. The NHFs were then treated with 5 μM GC4419 for 24 hours followed by treatment with 10 pmol/cell ascorbate for 1 hour.
# Normal human fibroblasts (NHFs) were plated and grown in culture (low FBS media) for 48 hours. The NHFs were then treated with 5 μM GC4419 for 24 hours followed by treatment with 10 pmol/cell ascorbate for 1 hour.
# [3] = system: VEGFr inhibitor-induced pulmonary disease; details: rat model; cited from earlier work
compound,measurement,setting,value
[Cl][Mn][Cl].c1cc2nc(c1)CN[C@H]1CCCC[C@@H]1NCCN[C@H]1CCCC[C@@H]1NC2 [GC4419],synergistic activity of the combination,"[1]; 5 μM GC4419 24 h + 10 pmol/cell ascorbate 1 h (GC+AA), FIG. 7",more than merely an additive effect
same,cell killing (clonogenic survival),"[1]; 5 μM GC4419 24 h + 10 pmol/cell ascorbate 1 h (GC+AA), compared to control and to each alone, FIG. 7",significant enhancements in cell killing
same,cytotoxicity (clonogenic survival),"[1]; 5-20 pmol/cell ascorbate 1 h in combination with 5, 10 or 20 μM GC4419 24 h, FIG. 5",increases the cytotoxicity of GC4419 or ascorbate
same,sensitization to ionizing radiation,"[1]; GC+AA+IR (2 Gy) compared to IR 2Gy alone, FIG. 7",sensitized the cancer cells to radiation
same,cell killing (clonogenic survival),"[1]; cisplatin 6 h + 10 μM GC4419 3 h + 10 pmol/cell ascorbate 1 h, compared to control and cisplatin, GC4419 or ascorbate monotherapies, FIG. 8",significant enhancements in cell killing
same,cytotoxicity to normal cells,[2],does not increase cytotoxicity of ascorbate
same,pulmonary disease,[3],attenuate VEGFr inhibitor-induced pulmonary disease
